One test has as its target T1, MMP-9 (Gel-B) (Homo sapiens, UniProt P14780).
T1 construct: made in house; host or cells: E. coli
Description: Ki determination with fluorogenic synthetic substrates, recombinant MMP-9. Format: biochemical. The note with it: Tris/50 mM HCl buffer, pH 6.8, 10 mM CaCl2, 25° C.; read-out: affinity constant Ki, MMP-9 Gel-B. How it is done:
(§1) The MMPs used were produced in recombinant form, in an E. coli expression system, and then purified using different types of chromatographies. Apart from stromelysin-3 (MMP-11), the MMPs produces correspond to human sequences. The Stromelysin-3 used in this study corresponds to the murine form.
(§2) The activity of each MMP was determined using two fluorogenic synthetic substrates. The cutoff of said substrates, which generates a fluorescent signal proportional to the quantity of split substrate, enables a precise determination of the kinetic parameters. The affinity constants Ki were calculated using the equation of Horowitz et al, Proc. Natl. Acad. Sci. USA, 1987, 84, p. 6654-6658 [14], accounting for the dependency of the percentage of inhibition measured experimentally according to the concentration of inhibitor, as a function of the enzyme and substrate concentration.
(§3) The experiments for conducted in a Tris/50 mM HCl buffer, pH 6.8, 10 mM CaCl2, 25° C.

In another test the target is T2, MMP-1 (HFC) (Homo sapiens, UniProt P03956).
T2 construct: made in house; host or cells: E. coli
T2 sequence (P03956 100-469): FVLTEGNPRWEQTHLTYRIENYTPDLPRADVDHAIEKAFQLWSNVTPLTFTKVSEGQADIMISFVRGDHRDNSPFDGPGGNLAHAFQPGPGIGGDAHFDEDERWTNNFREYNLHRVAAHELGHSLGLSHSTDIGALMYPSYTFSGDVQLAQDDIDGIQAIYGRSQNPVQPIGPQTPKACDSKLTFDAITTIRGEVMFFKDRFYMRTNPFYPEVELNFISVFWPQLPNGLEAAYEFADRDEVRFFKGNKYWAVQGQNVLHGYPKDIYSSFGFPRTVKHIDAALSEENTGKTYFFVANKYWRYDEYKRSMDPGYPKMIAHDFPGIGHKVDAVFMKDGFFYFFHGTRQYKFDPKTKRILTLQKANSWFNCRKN
Description: Ki determination with fluorogenic synthetic substrates, recombinant MMP-1. It counts as biochemical. The conditions noted are these: for percentage of inhibition, MMP-1: @ 2 mM inhibitor. How it is done:
as §1, §2, §3

In another test the target is T3, MMP-2 (Gel-A) (Homo sapiens, UniProt P08253).
T3 construct: made in house; host or cells: E. coli
T3 sequence (P08253 110-660): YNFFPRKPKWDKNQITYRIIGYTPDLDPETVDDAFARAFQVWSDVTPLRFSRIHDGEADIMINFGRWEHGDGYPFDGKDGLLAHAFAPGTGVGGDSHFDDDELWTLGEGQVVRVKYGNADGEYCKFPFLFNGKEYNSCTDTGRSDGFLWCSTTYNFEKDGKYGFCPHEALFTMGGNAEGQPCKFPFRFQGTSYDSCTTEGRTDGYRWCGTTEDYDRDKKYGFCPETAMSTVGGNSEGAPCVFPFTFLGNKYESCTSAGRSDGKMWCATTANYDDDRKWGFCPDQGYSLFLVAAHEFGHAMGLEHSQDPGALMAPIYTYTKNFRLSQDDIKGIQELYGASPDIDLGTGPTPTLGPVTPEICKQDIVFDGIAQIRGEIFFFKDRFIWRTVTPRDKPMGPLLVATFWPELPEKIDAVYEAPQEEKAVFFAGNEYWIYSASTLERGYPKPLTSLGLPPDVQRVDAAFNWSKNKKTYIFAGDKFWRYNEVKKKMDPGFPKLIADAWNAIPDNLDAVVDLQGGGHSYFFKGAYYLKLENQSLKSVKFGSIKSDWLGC
Description: Ki determination with fluorogenic synthetic substrates, recombinant MMP-2. It counts as biochemical. The note with it: Tris/50 mM HCl buffer, pH 6.8, 10 mM CaCl2, 25° C.; read-out: affinity constant Ki, MMP-2 Gel-A. The procedure: as §1, §2, §3

The target in a further test is T4, MMP-14 (MT1-MMP) (Homo sapiens, UniProt P50281).
T4 construct: made in house; host or cells: E. coli
Description: Ki determination with fluorogenic synthetic substrates, recombinant MMP-14. It counts as biochemical. The note with it: Tris/50 mM HCl buffer, pH 6.8, 10 mM CaCl2, 25° C.; read-out: affinity constant Ki, MMP-14 MT1-MMP. The procedure: as §1, §2, §3

A further test addresses T5, MMP-8 (HNC) (Homo sapiens, UniProt P22894).
T5 construct: made in house; host or cells: E. coli
Description: Ki determination with fluorogenic synthetic substrates, recombinant MMP-8. It counts as biochemical. The note with it: Tris/50 mM HCl buffer, pH 6.8, 10 mM CaCl2, 25° C.; read-out: affinity constant Ki, MMP-8 HNC. How it is done:
as §1, §2, §3

Another test addresses T6, MMP-7 (Matrilysin) (Homo sapiens, UniProt P09237).
T6 construct: made in house; host or cells: E. coli
T6 sequence (P09237 95-267): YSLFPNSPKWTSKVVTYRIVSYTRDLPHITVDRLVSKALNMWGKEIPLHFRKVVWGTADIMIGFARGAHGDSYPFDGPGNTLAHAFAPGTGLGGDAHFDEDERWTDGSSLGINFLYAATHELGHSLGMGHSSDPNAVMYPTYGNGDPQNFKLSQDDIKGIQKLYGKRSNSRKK
Description: Ki determination with fluorogenic synthetic substrates, recombinant MMP-7. Format: biochemical. The conditions noted are these: for percentage of inhibition, MMP-7: @ 20 mM inhibitor. How it is done: as §1, §2, §3

Test [1] addresses T7, MMP-11 (stromelysin-3, mST3) (Mus musculus, UniProt Q02853).
T7 construct: made in house; host or cells: E. coli
T7 sequence (Q02853 102-492): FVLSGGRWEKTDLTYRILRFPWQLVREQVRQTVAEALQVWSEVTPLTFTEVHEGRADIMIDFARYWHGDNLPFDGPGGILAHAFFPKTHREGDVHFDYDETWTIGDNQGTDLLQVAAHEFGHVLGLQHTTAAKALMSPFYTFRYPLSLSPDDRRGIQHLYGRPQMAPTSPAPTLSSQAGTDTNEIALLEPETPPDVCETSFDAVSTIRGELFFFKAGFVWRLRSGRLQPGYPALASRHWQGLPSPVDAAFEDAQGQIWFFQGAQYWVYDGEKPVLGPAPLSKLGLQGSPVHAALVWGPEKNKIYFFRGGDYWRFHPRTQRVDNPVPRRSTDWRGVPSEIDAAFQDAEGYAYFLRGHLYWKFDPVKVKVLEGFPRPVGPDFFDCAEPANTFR
Description: Ki determination with fluorogenic synthetic substrates, recombinant MMP-11. Format: biochemical, murine. The conditions noted are these: for pKi: Tris/50 mM HCl buffer, pH 6.8, 10 mM CaCl2, 25° C., read-out: affinity constant Ki, MMP-11 mST3. How it is done:
as §1, §2, §3

Test [2] deals with malignant murine C26 cells. Description: Tumorigenesis model: subcutaneous graft of malignant murine C26 cells in syngenic mice. Format: in vivo. The note with it: 150 μg of inhibitor/mouse/day, intraperitoneal. How it is done:
The tumorigenesis model used to test the effect of said RXPO3 inhibitor in vivo consists of a subcutaneous graft of malignant murine C26 cells in syngenic mice (with a genetic background similar to that of the injected cells).
The C26 cells established from Balb c mouse colic cancer (Corbett et al., 1975, Cancer Res, 35:2434-2439 [15] are cultured until subconfluence. After trypsinisation, the cells are centrifuged at 1000 g for 10 minutes. The sediment is washed and resuspended in 1×PBS. A […] volume, containing 5×10^4 C26 cells, is injected subcutaneously at 2 sites on the back of 8 to 9-week old mice. The inhibitor is solubilised in 1× PBS and […] of inhibitor in a […] volume is administered by the intraperitoneal route. The treatment starts on the day of the injection of the C26 cells and continues at a rate of one injection a day for 25 days. The tumoral volumes are measured every day.
Three identical and independent tumorigenesis experiments were conducted, according to the protocol given above. The results obtained were similar. One of them is reported below.
The experiment related to 12 animals, 6 receiving a treatment (150 μg of inhibitor/mouse/day) and 6 used as controlled animals (150 μl 1×PBS).

These results are taken from patent US6630501B1, “Phosphinic pseudo-peptides that may be used as matrix zinc metalloprotease inhibitors” (Commissariat a l'energie Atomique, priority 1999, dated 2003).

As usually defined, the pKi is the Ki on a negative log10 scale, so that one unit is a factor of ten. By inhibition is commonly meant the change of the read-out against control, counted positive when it falls.

pKi: −log10 of the molar value.

T5 sequence (P22894 101-467): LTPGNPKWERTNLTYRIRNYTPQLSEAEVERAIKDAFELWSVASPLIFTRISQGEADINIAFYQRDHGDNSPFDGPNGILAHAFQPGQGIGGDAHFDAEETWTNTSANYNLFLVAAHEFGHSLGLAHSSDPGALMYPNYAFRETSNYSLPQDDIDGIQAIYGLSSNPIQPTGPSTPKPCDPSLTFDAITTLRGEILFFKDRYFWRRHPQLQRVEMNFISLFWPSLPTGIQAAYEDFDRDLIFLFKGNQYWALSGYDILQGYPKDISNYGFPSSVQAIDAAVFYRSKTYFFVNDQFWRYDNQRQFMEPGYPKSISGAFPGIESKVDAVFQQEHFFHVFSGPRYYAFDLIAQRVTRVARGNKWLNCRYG
T1 sequence (P14780 94-707): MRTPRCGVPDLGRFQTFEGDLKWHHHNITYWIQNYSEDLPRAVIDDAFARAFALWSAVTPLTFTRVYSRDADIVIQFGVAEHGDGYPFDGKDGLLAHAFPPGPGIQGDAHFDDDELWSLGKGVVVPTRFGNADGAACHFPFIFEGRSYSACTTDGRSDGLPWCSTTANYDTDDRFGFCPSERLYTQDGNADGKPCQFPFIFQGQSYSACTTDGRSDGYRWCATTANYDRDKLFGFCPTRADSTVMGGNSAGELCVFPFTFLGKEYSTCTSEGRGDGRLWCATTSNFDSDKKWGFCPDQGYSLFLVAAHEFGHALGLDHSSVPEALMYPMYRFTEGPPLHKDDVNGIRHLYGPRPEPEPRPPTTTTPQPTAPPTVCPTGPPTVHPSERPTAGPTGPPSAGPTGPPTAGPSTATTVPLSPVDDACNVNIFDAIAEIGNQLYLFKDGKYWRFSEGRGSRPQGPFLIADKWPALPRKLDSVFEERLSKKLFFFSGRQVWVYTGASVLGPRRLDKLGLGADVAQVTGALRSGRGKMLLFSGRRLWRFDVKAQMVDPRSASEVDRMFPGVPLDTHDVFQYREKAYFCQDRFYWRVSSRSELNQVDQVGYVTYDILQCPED

`NC(=O)C(Cc1c[nH]c2ccccc12)NC(=O)C(CCCc1ccccc1)CP(=O)(O)C(Cc1ccccc1)NC(=O)OCc1ccccc1` (single isomer, unassigned) [Compound 15 R I, ZPheΨ(PO2CpH2)pPheTrpNH2]: the negative-log Ki (pKi) on MMP-9 (Gel-B) is 7.38; at MMP-2 (Gel-A), 7.27; at MMP-14 (MT1-MMP), 7.05; at MMP-8 (HNC) it was 7.80; in test [1], 8.22. Also, the “percentage of inhibition, MMP-1” value at MMP-1 (HFC) (listed as R I) came out at 18% @ 2 mM. Also, at MMP-7 (Matrilysin) (listed as R I), the “percentage of inhibition, MMP-7” value is reported as 44% @ 20 mM. Further, the “mean and median tumour volumes in treated versus control animals” value in test [2] (Days 10 to 25) is listed as “always lower”. Besides, the “difference in tumour size, treated versus control animals” value in test [2] (day D15 to day D20, one injection a day for 25 days) is roughly 50%.
For the molecule `NC(=O)C(Cc1c[nH]c2ccccc12)NC(=O)C(CCCc1ccccc1)CP(=O)(O)C(Cc1ccccc1)NC(=O)OCc1ccccc1` (single isomer, unassigned) [Compound 15 R II], the negative-log Ki (pKi) is 7.11 at MMP-9 (Gel-B); 7.38 on MMP-2 (Gel-A); 6.41 at MMP-14 (MT1-MMP); 7.19 at MMP-8 (HNC); 8.05 in test [1]. On MMP-1 (HFC) (listed as R II), the “percentage of inhibition, MMP-1” value was 16% @ 2 mM. For the same molecule, on MMP-7 (Matrilysin) (listed as R II), the “percentage of inhibition, MMP-7” value amounted to 34% @ 20 mM.
Regarding `NC(=O)C(Cc1c[nH]c2ccccc12)NC(=O)C(CCCc1ccccc1)CP(=O)(O)C(Cc1ccccc1)NC(=O)c1cc2c(Cl)cc(Cl)cc2[nH]1` (stereo not shown) [Compound 31], the negative logarithm of the Ki (pKi) at MMP-9 (Gel-B) was 8.15; on MMP-1 (HFC) (Tris/50 mM HCl buffer, pH 6.8, 10 mM CaCl2, 25° C., read-out: affinity constant Ki, MMP-1 HFC), 7.44; at MMP-2 (Gel-A) it was 7.62; on MMP-14 (MT1-MMP), 7.49; on MMP-8 (HNC), 8.30; on MMP-7 (Matrilysin) (Tris/50 mM HCl buffer, pH 6.8, 10 mM CaCl2, 25° C., read-out: affinity constant Ki, MMP-7 Matrilysin) it was 6.93. Also, the pKi in test [1] was 9.05. Also, the “inhibitory power on MMP-11, in words” value in test [1] was “very powerful inhibitor”.
As to `CC(NC(=O)OCc1ccccc1)C(=O)NC(Cc1ccccc1)P(=O)(O)CC(CCCc1ccccc1)C(=O)NC(Cc1c[nH]c2ccccc12)C(N)=O` (stereo not shown) [Compound 34], the pKi was 8.00 on MMP-9 (Gel-B); 7.96 at MMP-2 (Gel-A); 7.39 on MMP-14 (MT1-MMP); 8.26 at MMP-8 (HNC); 8.10 in test [1]. Besides, the inhibition at 1 µM on MMP-1 (HFC) (@ 1 μM inhibitor, read-out: percentage of inhibition, MMP-1) stood at 24%; on MMP-7 (Matrilysin) (@ 1 μM inhibitor, read-out: percentage of inhibition, MMP-7), 18%.
